No end group written: not given here.
Columns and labels:
[1] = molecular target: T1, human CCL8-647 (Homo sapiens, UniProt P80075); assay: Fluorescent chemokine binding to THP-1 cells (flow cytometry); assay type: cell-based; settings: FIG. 16 A, B
T1 construct: purchased Almac (UK)
T1 sequence (P80075 24-99): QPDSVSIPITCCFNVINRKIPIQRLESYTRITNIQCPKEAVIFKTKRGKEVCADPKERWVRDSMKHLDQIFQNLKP
Protocol: P672_PEP_SCRAM (C-terminally amidated)=[…] FIG. 16(A). […] 60 μM (+) P672_PEP or P672_PEP_SCRAM were incubated with CCL8-647 (2.5 nM) for half an hour at 37° C. prior to adding to THP-1 cells and incubating everything together for a further half an hour at 37° C. Cells were then analysed using fluorescence assisted cell sorting (10,000 cells analysed) and MFI recorded. Experiment carried out in triplicate where each data point is the average of one experiment carried out in technical triplicate. Mean with SEM shown and statistical significance was determined using one-way ANOVA with Sidak's correction for multiple comparisons using Graph Pad Prism 6. ****=P<0.00005, ns=not significant.
Data are shown as mean of two technical replicates. […] Curves were fitted with 4 parameters to estimate IC50.
Fluorescent chemokine (conjugated to AlexaFluor-647) binding to THP-1 cells results in an increase in the cellular fluorescence intensity, which is quantitatively measured using flow cytometry.
Fluorescent Chemokine/Receptor Blocking Assay CCL8-647 (2.5 nM, final) or […] (1.2 nM, final) was incubated for 30 minutes with varying doses of peptide (0-100 μM, final concentration) in 50 μL assay buffer (RPMI-1640+L-glutamine (4 mM)+10% heat treated fetal bovine serum+0.2% DMSO) at 37° C. […]

[2] = molecular target: T2, CCL8 (Homo sapiens, UniProt P80075); assay: Fluorescence polarisation (anisotropy) assay; assay type: binding; settings: fluorescence polarisation displacement assay
T2 construct: SUMO (in-house protein only) (cleaved yes); made in house; host or cells: Escherichia coli RosettaGami 2 (DE3)
T2 sequence (P80075 24-99): T1 sequence (P80075 24-99)

## EDEDYEDFFKPVTAYF-NH2 [BK1.1]
[1]
  Inhibition of CCL8-647 binding to THP-1 cells: could inhibit CCL8-647 binding to THP-1 cells
[2]
  Displacement of FITC-labelled peptide from CCL8 by unlabelled peptide: indicate its binding
[2]; listed as P672_PEP
  Displacement of FITC-labelled peptide from CCL8 by unlabelled peptide: able to displace labelled peptide bound to chemokine
